pIC50: −log10 of the molar value.
How the values were obtained:
HEK-293 cells = assay: HEK-293 cytotoxicity detection (CellTiter-Glo); type: cell-based; settings: Homo sapiens, 72 h, 72 h incubation, CellTiter-Glo luminescence, read-out: HEK293
Procedure: HEK-293 cells were treated with compounds diluted in 0.2% DMSO, dilution was done according to the following protocol: (1) making 500× stock solution in DMSO from 5 mM by 4-fold dilution, total 8 doses were included; (2) making 2× solution in cell culture medium by transferring 0.5 ul 500× stock solution into 125 ul medium; (3) adding 50 ul of 2× solution to cells for incubation of 72 h.
25 μl of the CellTiter-Glo®Reagent [(Promega)—Cat No. G7572] was added to each well in the 96-well plate. The contents were mixed for 2 minutes on an orbital shaker to induce cell lysis. The plate was then allowed to incubate at room temperature for 10 minutes to stabilize luminescent signal. Luminescence was recorded on BMG PheraStar with luminescence protocol.
The inhibition percentage of the compound was calculated by the following equation: Inhibition percentage of Compound=100−100×(Signal-low control)/(High control-low control), wherein signal=each test compound group
High control=Cell group with added DMSO and without compound, indicating cells proliferation with no inhibition;
Imax is the maximum percentage of inhibition.
The IC50 value of a compound can be obtained by fitting the following equation
(§1) Wherein, X and Y are known values, and IC50, Hillslope, Top and Bottom are the parameters obtained by fitting with software. Y is the inhibition percentage (calculated from the equation), X is the concentration of the compound; IC50 is the concentration of the compound when the 50% inhibition is reached. The smaller the IC50 value is, the stronger the inhibitory ability of the compound is. Vice versa, the higher the IC50 value is, the weaker the ability the inhibitory ability of the compound is; Hillslope represents the slope of the fitted curve, generally around 1*; Bottom represents the minimum value of the curve obtained by data fitting, which is generally 0%±20%; Top represents the maximum value of the curve obtained by data fitting, which is generally 100%±20%. The experimental data were fitted by calculating and analyzing with Dotmatics data analysis software.

BTK = BTK (Homo sapiens, UniProt Q06187); assay: BTK cell degradation in TMD-8 cells, HTRF assay; type: cell-based; design: endogenous in cells; host or cells: TMD-8 cells; settings: 6 h treatment, IC50 (DC50) of BTK degradation
Procedure: TMD-8 cells were treated with compounds diluted in 0.2% DMSO, dilution was done according to the following protocol: (1) making 500× stock solution in DMSO from 1 mM by 6-fold dilution, total 8 doses were included; (2) making 2× solution in cell culture medium by transferring 0.5 μl 500× stock solution into 125 μl medium; (3) adding 15 μl of 2× solution to cells for incubation of 6 h.
After 6 h treatment, 10 μl 14×lysis buffer was added to each well; the plate was sealed and incubated for 30 min at room temperature on a plate shaker; Once the cells was lysed, 16 μL of cell lysate were transferred to a PE 384-well HTRF detection plate; 4 μL of pre-mixed HTRF antibodies were added to each well; the plate was covered with a plate sealer, and then spinned at 1000 rpm for 1 min, then incubated overnight at room temperature; the results were read on BMG PheraStar with HTRF protocol (337 nm-665 nm-620 nm).
The inhibition (degradation) percentage of the compound was calculated by the following equation: Inhibition percentage of Compound=100−100×(Signal-low control)/(High control-low control), wherein signal=each test compound group
High control=Cell group with added DMSO and without compound, indicating microplate readings without BTK degradation;
Dmax is the maximum percentage of inhibition (degradation).
The IC50 (DC50) value of a compound can be obtained by fitting the following equation
Y=Bottom+(TOP−Bottom)/(1+((IC50/X)^hillslope))
as §1, with “wherein,” for “Wherein,”

Chain of BTK (Q06187 whole entry): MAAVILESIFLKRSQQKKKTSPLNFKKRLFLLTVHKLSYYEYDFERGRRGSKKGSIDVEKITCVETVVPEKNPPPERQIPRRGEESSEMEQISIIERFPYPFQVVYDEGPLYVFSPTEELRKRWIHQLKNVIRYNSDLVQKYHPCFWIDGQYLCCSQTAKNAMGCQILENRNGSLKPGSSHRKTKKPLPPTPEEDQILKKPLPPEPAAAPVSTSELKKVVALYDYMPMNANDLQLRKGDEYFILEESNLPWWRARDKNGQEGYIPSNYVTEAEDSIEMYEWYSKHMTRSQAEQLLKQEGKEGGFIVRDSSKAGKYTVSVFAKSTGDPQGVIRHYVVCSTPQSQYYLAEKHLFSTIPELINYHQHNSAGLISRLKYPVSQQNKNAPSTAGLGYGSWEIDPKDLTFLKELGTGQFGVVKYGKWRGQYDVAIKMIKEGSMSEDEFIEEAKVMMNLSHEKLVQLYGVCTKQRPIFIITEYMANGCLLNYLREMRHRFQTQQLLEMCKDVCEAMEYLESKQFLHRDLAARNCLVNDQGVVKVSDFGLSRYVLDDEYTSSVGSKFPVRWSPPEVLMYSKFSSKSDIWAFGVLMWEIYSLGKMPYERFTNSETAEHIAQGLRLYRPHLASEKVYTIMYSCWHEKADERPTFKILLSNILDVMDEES

DC50 (BTK)	Compound	pIC50 (HEK-293 cells)
1.26 nM	NC(=O)c1c(-c2ccc(Oc3ccccc3)cc2)nn2c1Nc1ccc(NC(=O)C3CCN(CC4CCN(c5ccc6c(c5)C(=O)N(C5CCC(=O)NC5=O)C6=O)CC4)CC3)cc1CC2 (stereo not shown) [Example A4, 7-(1-((1-(2-(2,6-dioxopiperidin-3-yl)-1,3-dioxoisoindolin-5-yl)piperidin-4-yl)methyl)piperidine-4-carboxamido)-2-(4-phenoxyphenyl)-9,10-dihydro-4H-benzo[d]pyrazolo[1,5-a][1,3]diazepine-3-carboxamide]	7.11
1.45 nM	NC(=O)c1c(-c2ccc(Oc3ccccc3)cc2)nn2c1Nc1ccc(NC3CCN(CC4CCN(c5cc6c(cc5F)C(=O)N(C5CCC(=O)NC5=O)C6=O)CC4)CC3)cc1CC2 (stereo not shown) [Example A5, 7-((1-((1-(2-(2,6-dioxopiperidin-3-yl)-6-fluoro-1,3-dioxoisoindolin-5-yl)piperidin-4-yl)methyl)piperidin-4-yl)amino)-2-(4-phenoxyphenyl)-9,10-dihydro-4H-benzo[d]pyrazolo[1,5-a][1,3]diazepine-3-carboxamide]	7.08
3.42 nM	NC(=O)c1c(-c2ccc(Oc3ccccc3)cc2)nn2c1Nc1ccc(N3CCN(CC4CCN(c5ccc6c(c5)C(=O)N(C5CCC(=O)NC5=O)C6=O)CC4)CC3)cc1CC2 (stereo not shown) [Example A6, 7-(4-((1-(2-(2,6-dioxopiperidin-3-yl)-1,3-dioxoisoindolin-5-yl)piperidin-4-yl)methyl)piperazin-1-yl)-2-(4-phenoxyphenyl)-9,10-dihydro-4H-benzo[d]pyrazolo[1,5-a][1,3]diazepine-3-carboxamide]	6.79
2.51 nM	NC(=O)c1c(-c2ccc(Oc3ccccc3)cc2)nn2c1Nc1ccc(N3CCN(c4ccc5c(c4)C(=O)N(C4CCC(=O)NC4=O)C5=O)CC3)cc1CC2 (stereo not shown) [Example A7, 7-(4-(2-(2,6-dioxopiperidin-3-yl)-1,3-dioxoisoindolin-5-yl)piperazin-1-yl)-2-(4-phenoxyphenyl)-9,10-dihydro-4H-benzo[d]pyrazolo[1,5-a][1,3]diazepine-3-carboxamide]	6.75
2.97 nM	NC(=O)c1c(-c2ccc(Oc3ccccc3)cc2)nn2c1Nc1ccc(NC3CCN(c4ccc5c(c4)C(=O)N(C4CCC(=O)NC4=O)C5=O)CC3)cc1CC2 (stereo not shown) [Example A8, 7-((1-(2-(2,6-dioxopiperidin-3-yl)-1,3-dioxoisoindolin-5-yl)piperidin-4-yl)amino)-2-(4-phenoxyphenyl)-9,10-dihydro-4H-benzo[d]pyrazolo[1,5-a][1,3]diazepine-3-carboxamide]	6.55
2.26 nM	NC(=O)c1c(-c2ccc(Oc3ccccc3)cc2)nn2c1Nc1ccc(C(=O)NC3CCN(c4ccc5c(c4)C(=O)N(C4CCC(=O)NC4=O)C5=O)CC3)cc1CC2 (stereo not shown) [Example A9, N7-(1-(2-(2,6-dioxopiperidin-3-yl)-1,3-dioxoisoindolin-5-yl)piperidin-4-yl)-2-(4-phenoxyphenyl)-9,10-dihydro-4H-benzo[d]pyrazolo[1,5-a][1,3]diazepine-3,7-dicarboxamide]	7.18
1.75 nM	NC(=O)c1c(-c2ccc(Oc3ccccc3)cc2)nn2c1Nc1ccc(C(=O)NC3CCN(CC4CCN(c5cc6c(cc5F)C(=O)N(C5CCC(=O)NC5=O)C6=O)CC4)CC3)cc1CC2 (stereo not shown) [Example A10, N^7-(1-((1-(2-(2,6-dioxopiperidin-3-yl)-6-fluoro-1,3-dioxoisoindolin-5-yl)piperidin-4-yl)methyl)piperidin-4-yl)-2-(4-phenoxyphenyl)-9,10-dihydro-4H-benzo[d]pyrazolo[1,5-a][1,3]diazepine-3,7-dicarboxamide]	6.92
5.71 nM	NC(=O)c1c(-c2ccc(Oc3ccccc3)cc2)nn2c1Nc1ccc(NC(=O)C3CCN(c4cccc5c4C(=O)N(C4CCC(=O)NC4=O)C5=O)CC3)cc1CC2 (stereo not shown) [Example A11, 7-(1-(2-(2,6-dioxopiperidin-3-yl)-1,3-dioxoisoindolin-4-yl)piperidine-4-carboxamido)-2-(4-phenoxyphenyl)-9,10-dihydro-4H-benzo[d]pyrazolo[1,5-a][1,3]diazepine-3-carboxamide]	6.08
4.58 nM	NC(=O)c1c(-c2ccc(Oc3ccccc3)cc2)nn2c1Nc1ccc(C(=O)N[C@H]3CC[C@H](CN4CCN(c5cc6c(cc5F)C(=O)N(C5CCC(=O)NC5=O)C6=O)CC4)CC3)cc1CC2 (stereo partly shown) [Example A12, N^7-((1r,4r)-4-((4-(2-(2,6-dioxopiperidin-3-yl)-6-fluoro-1,3-dioxoisoindolin-5-yl)piperazin-1-yl)methyl)cyclohexyl)-2-(4-phenoxyphenyl)-9,10-dihydro-4H-benzo[d]pyrazolo[1,5-a][1,3]diazepine-3,7-dicarboxamide]	6.40
2.79 nM	NC(=O)c1c(-c2ccc(Oc3ccccc3)cc2)nn2c1Nc1ccc(C(=O)N3CCN(CC4CCN(c5ccc6c(c5)C(=O)N(C5CCC(=O)NC5=O)C6=O)CC4)CC3)cc1CC2 (stereo not shown) [Example A13, 7-(4-((1-(2-(2,6-dioxopiperidin-3-yl)-1,3-dioxoisoindolin-5-yl)piperidin-4-yl)methyl)piperazine-1-carbonyl)-2-(4-phenoxyphenyl)-9,10-dihydro-4H-benzo[d]pyrazolo[1,5-a][1,3]diazepine-3-carboxamide]	6.78
3.22 nM	NC(=O)c1c(-c2ccc(Oc3ccccc3)cc2)nn2c1Nc1ccc(C(=O)N3CCC(CN4CCN(c5cc6c(cc5F)C(=O)N(C5CCC(=O)NC5=O)C6=O)CC4)CC3)cc1CC2 (stereo not shown) [Example A14, 7-(4-((4-(2-(2,6-dioxopiperidin-3-yl)-6-fluoro-1,3-dioxoisoindolin-5-yl)piperazin-1-yl)methyl)piperidine-1-carbonyl)-2-(4-phenoxyphenyl)-9,10-dihydro-4H-benzo[d]pyrazolo[1,5-a][1,3]diazepine-3-carboxamide]	6.29
9.62 nM	NC(=O)c1c(-c2ccc(Oc3ccccc3)cc2)nn2c1Nc1cc(NC(=O)C3CCN(CC4CCN(c5ccc6c(c5)C(=O)N(C5CCC(=O)NC5=O)C6=O)CC4)CC3)ccc1CC2 (stereo not shown) [Example A18, 6-(1-((1-(2-(2,6-dioxopiperidin-3-yl)-1,3-dioxoisoindolin-5-yl)piperidin-4-yl)methyl)piperidine-4-carboxamido)-2-(4-phenoxyphenyl)-9,10-dihydro-4H-benzo[d]pyrazolo[1,5-a][1,3]diazepine-3-carboxamide]	5.60
13.4 nM	NC(=O)c1c(-c2ccc(Oc3ccccc3)cc2)nn2c1Nc1cc(C(=O)N3CCC(CN4CCN(c5cc6c(cc5F)C(=O)N(C5CCC(=O)NC5=O)C6=O)CC4)CC3)ccc1CC2 (stereo not shown) [Example A20, 6-(4-((4-(2-(2,6-dioxopiperidin-3-yl)-6-fluoro-1,3-dioxoisoindolin-5-yl)piperazin-1-yl)methyl)piperidine-1-carbonyl)-2-(4-phenoxyphenyl)-9,10-dihydro-4H-benzo[d]pyrazolo[1,5-a][1,3]diazepine-3-carboxamide]	< 5.00
1.51 nM	NC(=O)c1c(-c2ccc(Oc3ccccc3)cc2)nn2c1Nc1ccc(N3CCN(CC4CCN(c5ccc(N6CCC(=O)NC6=O)cc5)CC4)CC3)cc1CC2 [Example A21, 7-(4-((1-(4-(2,4-dioxotetrahydropyrimidin-1(2H)-yl)phenyl)piperidin-4-yl)methyl)piperazin-1-yl)-2-(4-phenoxyphenyl)-9,10-dihydro-4H-benzo[d]pyrazolo[1,5-a][1,3]diazepine-3-carboxamide]	7.21

Reference: patent publication US20240246977A1, “DEGRADATION OF BRUTON'S TYROSINE KINASE (BTK) BY CONJUGATION OF BTK INHIBITORS WITH E3 LIGASE LIGAND AND METHOD OF USE” (BeiGene Switzerland GmbH, priority 2021, published 2024)
